Experimental data as given in ChEMBL document CHEMBL4316632, “Antiplasmodial Diterpenoids from Psiadia arguta” (J Nat Prod, 2019).

System: Plasmodium falciparum
Experiment: Antiplasmodial activity against Plasmodium falciparum 3D7 assessed as reduction in parasite viability incubated for 48 hrs by APAD colorimetric test
Format: functional, organism-based
Settings: 3D7, 48 h

SMILES	IC50
C[C@H](CCO)CC[C@@H]1[C@@]2(C)CCCC(C)(C)[C@@H]2CC[C@@]1(C)O [LABDANEDIOL]	22.2 µM
CC(=O)OCC[C@@H](C)CC[C@@H]1[C@@]2(C)CCCC(C)(C)[C@@H]2CC[C@@]1(C)O	33.2 µM
CCC(C)CC(=O)OCCC(C)CC[C@@H]1[C@@]2(C)CCCC(C)(C)[C@@H]2CC[C@@]1(C)O (some centres undefined)	54.8 µM
CCC(C)C(=O)OCCC(C)CC[C@@H]1[C@@]2(C)CCCC(C)(C)[C@@H]2CC[C@@]1(C)O (some centres undefined)	58 µM
C/C(=C\CO)CC[C@@H]1[C@@]2(C)CCCC(C)(C)[C@@H]2CC[C@@]1(C)O	36.6 µM
CC(CCOC=O)CC[C@@H]1[C@@]2(C)CCCC(C)(C)[C@@H]2CC[C@@]1(C)O (some centres undefined)	73 µM
CC(CCOC(=O)CC(C)CC[C@H]1[C@]2(C)CCCC(C)(C)[C@H]2CC[C@]1(C)O)CC[C@@H]1[C@@]2(C)CCCC(C)(C)[C@@H]2CC[C@@]1(C)O (some centres undefined)	> 50 µg/mL
C=C[C@](C)(O)CC[C@@H]1[C@@]2(C)CCCC(C)(C)[C@@H]2CC[C@@]1(C)O [SCLAREOL]	35 µM
CC(=O)OC/C=C(\C)CC[C@@H]1[C@@]2(C)CCCC(C)(C)[C@@H]2CC[C@@]1(C)O	29.1 µM
